Assay results as given in patent US20030104507A1, “Method for detection of ATP” (priority 2001, published 2003).

Legend:
[1] = system: ATPase activity endogenous to L929 cell lysate; experiment: Detergent inhibition of ATPase endogenous to L929 cell lysate (ATP remaining by luciferase luminescence, 22° C.); type: biochemical; design: key to Relative ATPase Activity, slope det/slope lysate: slope with detergent / slope without; ≥1.0 = 100% activity, 0.5 = 50%
Procedure: Three separate detergents in each of four detergent classes were tested: anionic [SDS (Sodium dodecyl sulfate), Bioterge (an α olefin sulfate), and sodium deoxycholate], nonionic [TRITON X-100, BigCHAP (N,N-bis(3-D-Gluconamidopropyl)cholamide) and THESIT (polyethylene glycol 400 dodecyl ether, Fluka, #88315)], cationic [BDDABr (Benzyldimethyldodecylammonium bromide), CTAB (Cetyltrimethylammonium bromide), and DTAB (dodecyltrimethylammonium bromide)] and zwitterionic [CHAPS (3[(3-Cholamidopropyl)dimethylammonio]propanesulfonic acid), CHAPSO (3-([3-Cholamidopropyl]dimethylammonio)-2-hydroxy-1-propanesulfonate), and Sulfobetaine 3-10 ([…]-N,N-dimethyl-3-ammonio-1-propanesulfonate)]. Detergents were obtained from Sigma, Fluka and Aldrich.
L929 cells (ATCC CCL-1; 1.5×10^5 cells/ml) in F12/DMEM (Hyclone, SH30023) containing 10% horse serum (Hyclone, SH30074) were frozen and thawed for four cycles to create a cell lysate. Then 50 μl of stock detergent solutions [10%, 5.0%, 1.0%, and 0.5% (w/v)] were separately added to 450 μl cell lysate, creating a final detergent concentration in the cell lysate sample of 1.0%, 0.5%, 0.1%, and 0.05%, respectively (these percentage values are those used in Tables D and E herein below). Control samples contained either lysate only or 1.0 μM ATP in 15 mM HEPES buffer (pH 7.5). All samples were incubated at 22° C. (room temperature) for the duration of the experiment.
At various timepoints, 20 μl from each sample/detergent mixture was added to a 96-well luminometer plate in triplicate, and then 100 μl of a solution (“luciferase-luciferin” or “L/L reagent”) containing 25 mM HEPES buffer (pH 7.5), 40 μg luciferase enzyme LucPpe2m146 (Promega, E140), 100 μM luciferin (Promega), and 10 mM MgSO4 was added to each well. The L/L reagent was stored at 4° C. for the duration of the experiment and then allowed to reach ambient temperature just before assaying. After mixing the contents of the plate, light output was measured with a Dynex MLX microtiter plate luminometer (Chantilly, Va.), 0.5 second reads per well with the first measurement taken five minutes after the detergent solution was combined with the sample. The average relative light units and the timepoint at which it was measured (rlu; Table D) and percent of remaining luciferase activity at the timepoint (Table E) are reported; controls were run with each set of experimental conditions as indicated. The cationic and anionic detergents were assayed on one day with one set of controls. The zwitterionic and nonionic detergents were assayed on a separate day with a separate set of controls. The DTAB at 0.5% was assayed on both days (1 and 2).
The experiment was performed as detailed in Example 1. The average relative light unit values and the percent of ATP remaining values are listed below in Table F and G respectively.
The log of the percent of ATP remaining after original timepoint values from Table E and Table G were plotted on the y axis against time (in minutes) on the x axis. The slope of the line generated by these values in the presence of detergent was divided by the slope of the line generated by the values in the absence of detergent (lysate control) resulting in the Relative ATPase Activity values listed below in Table H.
A relative activity value of 1.0 or greater indicates 100% cellular ATPase activity at the concentration of detergent tested. A relative activity value of 0.5 indicates a two-fold (or 50%) decrease in the level of cellular ATPase activity at the concentration of detergent tested when compared to the ATPase activity level in the absence of the detergent. A relative activity value of 0.2 indicates a five-fold (or 80%) decrease in the level of cellular ATPase activity at the concentration of detergent tested when compared to the ATPase activity level in the absence of the detergent.

LucPpe2m146 = experiment: Duration of luminescence (signal stability) and effects of media and sera, DTAB, ± pyrophosphate; type: biochemical, Photuris pennsylvanica; conditions: 10 μM sodium pyrophosphate
Procedure: In some embodiments, the compositions of the invention were added to intact cells to lyse them, and then ATP detected. In other embodiments, conditioned culture media were themselves assayed for ATP. However, the various components of media, such as buffers, sugars, amino acids, pH indicators, salts, etc., as well as the various factors found in serum (equine, bovine, etc.) may inhibit luciferase activity.
The luciferase-luciferin reaction was initiated by combining 100 μl of the reagent composition composition with 100 μl cell media with serum, varying final concentrations of DTAB (as indicated below in Table Q) and 1.0 μM ATP was added to each reaction plus or minus 10 μM sodium pyrophosphate in wells of a 96-well microtiter luminometer plate; each experimental condition was prepared in triplicate. At various times after initiating the reaction, rlu values were recorded using an Orion microplate luminometer (Berthold Detection Systems; Pforzheim, Germany).

In the case of `C[C@H](CCC(=O)NCCC[N+](C)(C)CCCS(=O)(=O)[O-])[C@H]1CC[C@H]2[C@@H]3[C@H](O)C[C@@H]4C[C@H](O)CC[C@]4(C)[C@H]3C[C@H](O)[C@]12C` [CHAPS, 3[(3-Cholamidopropyl)dimethylammonio]propanesulfonic acid], the “Average Relative Light Unit Values” ([1]; 0.05% detergent, 5 min) is reported as 6356.62 rlu, the “Percent ATP Remaining” value ([1]; 0.05% detergent, 5 min) is reported as 100% and the “Average Relative Light Unit Values” ([1]; 0.05% detergent, 75 min) is reported as 2305.56 rlu. The “Percent ATP Remaining” value ([1]; 0.05% detergent, 75 min) was 36.3%, the “Average Relative Light Unit Values” ([1]; 0.05% detergent, 169 min) was 1143.02 rlu and the “Percent ATP Remaining” value ([1]; 0.05% detergent, 169 min) was 18.0%. For the same compound, the “Average Relative Light Unit Values” ([1]; 0.05% detergent, 222 min) was 500.80 rlu, the “Percent ATP Remaining” value ([1]; 0.05% detergent, 222 min) was 7.9% and the “Average Relative Light Unit Values” ([1]; 0.05% detergent, 260 min) was 240.81 rlu. The “Percent ATP Remaining” value ([1]; 0.05% detergent, 260 min) was 3.8%, the “Relative ATPase Activity, slope det/slope lysate” value ([1]; 0.05 percent detergent) was 1.061 and the “Slope (log percent ATP remaining vs time in minutes)” value ([1]; 0.05 percent detergent) was −0.0056. The “Average Relative Light Unit Values” ([1]; 0.1% detergent, 5 min) was 6515.77 rlu, the “Percent ATP Remaining” value ([1]; 0.1% detergent, 5 min) was 100% and the “Average Relative Light Unit Values” ([1]; 0.1% detergent, 75 min) was 2583.65 rlu. For the same compound, the “Percent ATP Remaining” value ([1]; 0.1% detergent, 75 min) was 39.7%, the “Average Relative Light Unit Values” ([1]; 0.1% detergent, 169 min) was 1236.53 rlu and the “Percent ATP Remaining” value ([1]; 0.1% detergent, 169 min) was 19.0%. The “Average Relative Light Unit Values” ([1]; 0.1% detergent, 222 min) was 448.96 rlu, the “Percent ATP Remaining” value ([1]; 0.1% detergent, 222 min) was 8.6% and the “Average Relative Light Unit Values” ([1]; 0.1% detergent, 260 min) was 284.18 rlu. For the same compound, the “Percent ATP Remaining” value ([1]; 0.1% detergent, 260 min) was 4.4%, the “Relative ATPase Activity, slope det/slope lysate” value ([1]; 0.10 percent detergent) was 1.023 and the “Slope (log percent ATP remaining vs time in minutes)” value ([1]; 0.10 percent detergent) was −0.0054. The “Average Relative Light Unit Values” ([1]; 0.5% detergent, 5 min) was 7368.91 rlu, the “Percent ATP Remaining” value ([1]; 0.5% detergent, 5 min) was 100% and the “Average Relative Light Unit Values” ([1]; 0.5% detergent, 75 min) was 4048.24 rlu. For the same compound, the “Percent ATP Remaining” value ([1]; 0.5% detergent, 75 min) was 54.9%, the “Average Relative Light Unit Values” ([1]; 0.5% detergent, 169 min) was 2548.39 rlu and the “Percent ATP Remaining” value ([1]; 0.5% detergent, 169 min) was 34.6%. The “Average Relative Light Unit Values” ([1]; 0.5% detergent, 222 min) was 1438.57 rlu, the “Percent ATP Remaining” value ([1]; 0.5% detergent, 222 min) was 19.5% and the “Average Relative Light Unit Values” ([1]; 0.5% detergent, 260 min) was 909.15 rlu. For the same compound, the “Percent ATP Remaining” value ([1]; 0.5% detergent, 260 min) was 12.3%, the “Relative ATPase Activity, slope det/slope lysate” value ([1]; 0.50 percent detergent) was 0.688 and the “Slope (log percent ATP remaining vs time in minutes)” value ([1]; 0.50 percent detergent) was −0.0036. The “Average Relative Light Unit Values” ([1]; 1.0% detergent, 5 min) was 7241.33 rlu, the “Percent ATP Remaining” value ([1]; 1.0% detergent, 5 min) was 100% and the “Average Relative Light Unit Values” ([1]; 1.0% detergent, 75 min) was 3816.06 rlu. The “Percent ATP Remaining” value ([1]; 1.0% detergent, 75 min) was 52.7%, the “Average Relative Light Unit Values” ([1]; 1.0% detergent, 169 min) was 2348.28 rlu and the “Percent ATP Remaining” value ([1]; 1.0% detergent, 169 min) was 32.4%. The “Average Relative Light Unit Values” ([1]; 1.0% detergent, 222 min) was 1322.30 rlu, the “Percent ATP Remaining” value ([1]; 1.0% detergent, 222 min) was 18.3% and the “Average Relative Light Unit Values” ([1]; 1.0% detergent, 260 min) was 809.22 rlu. The “Percent ATP Remaining” value ([1]; 1.0% detergent, 260 min) was 11.2%, the “Relative ATPase Activity, slope det/slope lysate” value ([1]; 1.00 percent detergent) was 0.715 and the “Slope (log percent ATP remaining vs time in minutes)” value ([1]; 1.00 percent detergent) was −0.0038.

`O=P([O-])([O-])OP(=O)([O-])[O-].[Na+].[Na+].[Na+].[Na+]` [Ppi, sodium pyrophosphate] was tested, and the decrease of luminescence (LucPpe2m146) was “ten-fold”.

With “polyethylene glycol 400 dodecyl ether [THESIT]” the “Average Relative Light Unit Values” ([1]; 0.05% detergent, 5 min) was 5632.96 rlu, the “Percent ATP Remaining” value ([1]; 0.05% detergent, 5 min) was 100% and the “Average Relative Light Unit Values” ([1]; 0.05% detergent, 75 min) was 1601.09 rlu. For the same compound, the “Percent ATP Remaining” value ([1]; 0.05% detergent, 75 min) was 28.4%, the “Average Relative Light Unit Values” ([1]; 0.05% detergent, 169 min) was 623.38 rlu and the “Percent ATP Remaining” value ([1]; 0.05% detergent, 169 min) was 11.1%. For the same compound, the “Average Relative Light Unit Values” ([1]; 0.05% detergent, 222 min) was 211.67 rlu, the “Percent ATP Remaining” value ([1]; 0.05% detergent, 222 min) was 3.8% and the “Average Relative Light Unit Values” ([1]; 0.05% detergent, 260 min) was 110.15 rlu. For the same compound, the “Percent ATP Remaining” value ([1]; 0.05% detergent, 260 min) was 2.0%, the “Relative ATPase Activity, slope det/slope lysate” value ([1]; 0.05 percent detergent) was 1.295 and the “Slope (log percent ATP remaining vs time in minutes)” value ([1]; 0.05 percent detergent) was −0.0068. The “Average Relative Light Unit Values” ([1]; 0.1% detergent, 5 min) was 6022.32 rlu, the “Percent ATP Remaining” value ([1]; 0.1% detergent, 5 min) was 100% and the “Average Relative Light Unit Values” ([1]; 0.1% detergent, 75 min) was 2654.97 rlu. The “Percent ATP Remaining” value ([1]; 0.1% detergent, 75 min) was 44.1%, the “Average Relative Light Unit Values” ([1]; 0.1% detergent, 169 min) was 1509.07 rlu and the “Percent ATP Remaining” value ([1]; 0.1% detergent, 169 min) was 25.1%. For the same compound, the “Average Relative Light Unit Values” ([1]; 0.1% detergent, 222 min) was 755.94 rlu, the “Percent ATP Remaining” value ([1]; 0.1% detergent, 222 min) was 12.6% and the “Average Relative Light Unit Values” ([1]; 0.1% detergent, 260 min) was 447.44 rlu. For the same compound, the “Percent ATP Remaining” value ([1]; 0.1% detergent, 260 min) was 7.4%, the “Relative ATPase Activity, slope det/slope lysate” value ([1]; 0.10 percent detergent) was 0.850 and the “Slope (log percent ATP remaining vs time in minutes)” value ([1]; 0.10 percent detergent) was −0.0045. The “Average Relative Light Unit Values” ([1]; 0.5% detergent, 5 min) was 6392.75 rlu, the “Percent ATP Remaining” value ([1]; 0.5% detergent, 5 min) was 100% and the “Average Relative Light Unit Values” ([1]; 0.5% detergent, 75 min) was 2304.48 rlu. The “Percent ATP Remaining” value ([1]; 0.5% detergent, 75 min) was 36.0%, the “Average Relative Light Unit Values” ([1]; 0.5% detergent, 169 min) was 1122.24 rlu and the “Percent ATP Remaining” value ([1]; 0.5% detergent, 169 min) was 17.6%. For the same compound, the “Average Relative Light Unit Values” ([1]; 0.5% detergent, 222 min) was 487.28 rlu, the “Percent ATP Remaining” value ([1]; 0.5% detergent, 222 min) was 7.6% and the “Average Relative Light Unit Values” ([1]; 0.5% detergent, 260 min) was 240.72 rlu. The “Percent ATP Remaining” value ([1]; 0.5% detergent, 260 min) was 3.8%, the “Relative ATPase Activity, slope det/slope lysate” value ([1]; 0.50 percent detergent) was 1.065 and the “Slope (log percent ATP remaining vs time in minutes)” value ([1]; 0.50 percent detergent) was −0.0056. For the same compound, the “Average Relative Light Unit Values” ([1]; 1.0% detergent, 5 min) was 6204.02 rlu, the “Percent ATP Remaining” value ([1]; 1.0% detergent, 5 min) was 100% and the “Average Relative Light Unit Values” ([1]; 1.0% detergent, 75 min) was 1979.43 rlu. For the same compound, the “Percent ATP Remaining” value ([1]; 1.0% detergent, 75 min) was 31.9%, the “Average Relative Light Unit Values” ([1]; 1.0% detergent, 169 min) was 968.14 rlu and the “Percent ATP Remaining” value ([1]; 1.0% detergent, 169 min) was 15.6%. The “Average Relative Light Unit Values” ([1]; 1.0% detergent, 222 min) was 416.45 rlu, the “Percent ATP Remaining” value ([1]; 1.0% detergent, 222 min) was 6.7% and the “Average Relative Light Unit Values” ([1]; 1.0% detergent, 260 min) was 210.78 rlu. The “Percent ATP Remaining” value ([1]; 1.0% detergent, 260 min) was 3.4%, the “Relative ATPase Activity, slope det/slope lysate” value ([1]; 1.00 percent detergent) was 1.096 and the “Slope (log percent ATP remaining vs time in minutes)” value ([1]; 1.00 percent detergent) was −0.0058.
